Tests used:
Assay in all cases: KINOMEscan
Type in all cases: binding
AAK1 = target: T1, AAK1 (Homo sapiens, UniProt Q2M2I8)
T1 construct: purchased Eurofins DiscoverX KINOMEscan
In short: (§1)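 Active-site competition format. Unbound kinase fraction measured by affinity-ligand capture plus qPCR after 1 h at RT. Kd from 12-point half-log titration, maximum 33 μM.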

ABL1 (F317I)-P = target: T2, ABL1 (F317I)-P (Homo sapiens, UniProt P00519, F317I)
T2 construct: purchased Eurofins DiscoverX KINOMEscan
In short: as §1

ABL1 (H396P)-P = target: T3, ABL1 (H396P)-P (Homo sapiens, UniProt P00519, H396P)
T3 construct: purchased Eurofins DiscoverX KINOMEscan
In short: as §1

ABL1 (T315I)-non-P = target: T4, ABL1 (T315I)-non-P (Homo sapiens, UniProt P00519, T315I)
T4 construct: purchased Eurofins DiscoverX KINOMEscan
In short: as §1

ABL1-P = target: T5, ABL1-P (Homo sapiens, UniProt P00519)
T5 construct: purchased Eurofins DiscoverX KINOMEscan
In short: as §1

AURKC = target: T6, AURKC (Homo sapiens, UniProt Q9UQB9)
T6 construct: purchased Eurofins DiscoverX KINOMEscan
In short: (§2)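 A 12-point half-log dilution series topping at 33 μM defined each Kd. The kinase fraction escaping compound binding over 1 h at room temperature was trapped by an immobilized affinity ligand and measured by quantitative PCR.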

BIKE = target: T7, BIKE (Homo sapiens, UniProt Q9NSY1)
T7 construct: purchased Eurofins DiscoverX KINOMEscan
In short: as §2

CAMK1B = target: T8, CAMK1B (Homo sapiens, UniProt Q6P2M8)
T8 construct: purchased Eurofins DiscoverX KINOMEscan
In short: as §2

CAMK2D = target: T9, CAMK2D (Homo sapiens, UniProt Q13557)
T9 construct: purchased Eurofins DiscoverX KINOMEscan
In short: as §1

CDK4-cyclinD1 = target: T10, CDK4-cyclinD1 (Homo sapiens, UniProt P11802)
T10 construct: purchased Eurofins DiscoverX KINOMEscan
In short: as §2

CDK5 = target: T11, CDK5 (Homo sapiens, UniProt Q00535)
T11 construct: purchased Eurofins DiscoverX KINOMEscan
T11 sequence (Q00535 whole entry): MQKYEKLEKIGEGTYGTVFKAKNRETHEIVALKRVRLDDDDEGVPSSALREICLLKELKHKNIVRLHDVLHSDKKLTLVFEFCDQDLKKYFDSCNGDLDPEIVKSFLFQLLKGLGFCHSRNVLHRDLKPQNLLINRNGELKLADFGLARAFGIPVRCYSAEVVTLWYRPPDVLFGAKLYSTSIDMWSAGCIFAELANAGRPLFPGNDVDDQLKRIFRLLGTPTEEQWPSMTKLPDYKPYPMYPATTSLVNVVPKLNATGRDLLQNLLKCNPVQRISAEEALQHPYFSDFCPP
In short: as §1

CSNK1G3 = target: T12, CSNK1G3 (Homo sapiens, UniProt Q9Y6M4)
T12 construct: purchased Eurofins DiscoverX KINOMEscan
In short: as §1

DCAMKL3 = target: T13, DCAMKL3 (Homo sapiens, UniProt Q9C098)
T13 construct: purchased Eurofins DiscoverX KINOMEscan
T13 sequence (Q9C098 whole entry): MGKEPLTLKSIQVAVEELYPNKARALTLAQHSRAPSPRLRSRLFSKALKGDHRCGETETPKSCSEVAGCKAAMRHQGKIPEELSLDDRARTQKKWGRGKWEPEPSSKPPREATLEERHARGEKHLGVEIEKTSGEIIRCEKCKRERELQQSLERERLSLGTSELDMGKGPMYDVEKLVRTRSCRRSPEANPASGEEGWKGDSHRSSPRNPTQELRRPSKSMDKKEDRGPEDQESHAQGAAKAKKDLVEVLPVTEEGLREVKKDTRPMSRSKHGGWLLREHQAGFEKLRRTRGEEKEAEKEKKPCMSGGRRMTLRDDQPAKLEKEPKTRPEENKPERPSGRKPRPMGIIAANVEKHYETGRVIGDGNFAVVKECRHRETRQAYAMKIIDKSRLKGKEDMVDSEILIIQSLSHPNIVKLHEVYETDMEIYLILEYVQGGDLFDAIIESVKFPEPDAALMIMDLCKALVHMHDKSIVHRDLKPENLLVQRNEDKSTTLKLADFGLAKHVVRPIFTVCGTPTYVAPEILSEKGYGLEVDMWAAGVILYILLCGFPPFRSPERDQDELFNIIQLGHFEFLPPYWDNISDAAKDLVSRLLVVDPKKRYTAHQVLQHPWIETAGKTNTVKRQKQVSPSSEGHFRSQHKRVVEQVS
In short: as §1

DLK = target: T14, DLK (Homo sapiens, UniProt Q12852)
T14 construct: purchased Eurofins DiscoverX KINOMEscan
T14 sequence (Q12852 whole entry): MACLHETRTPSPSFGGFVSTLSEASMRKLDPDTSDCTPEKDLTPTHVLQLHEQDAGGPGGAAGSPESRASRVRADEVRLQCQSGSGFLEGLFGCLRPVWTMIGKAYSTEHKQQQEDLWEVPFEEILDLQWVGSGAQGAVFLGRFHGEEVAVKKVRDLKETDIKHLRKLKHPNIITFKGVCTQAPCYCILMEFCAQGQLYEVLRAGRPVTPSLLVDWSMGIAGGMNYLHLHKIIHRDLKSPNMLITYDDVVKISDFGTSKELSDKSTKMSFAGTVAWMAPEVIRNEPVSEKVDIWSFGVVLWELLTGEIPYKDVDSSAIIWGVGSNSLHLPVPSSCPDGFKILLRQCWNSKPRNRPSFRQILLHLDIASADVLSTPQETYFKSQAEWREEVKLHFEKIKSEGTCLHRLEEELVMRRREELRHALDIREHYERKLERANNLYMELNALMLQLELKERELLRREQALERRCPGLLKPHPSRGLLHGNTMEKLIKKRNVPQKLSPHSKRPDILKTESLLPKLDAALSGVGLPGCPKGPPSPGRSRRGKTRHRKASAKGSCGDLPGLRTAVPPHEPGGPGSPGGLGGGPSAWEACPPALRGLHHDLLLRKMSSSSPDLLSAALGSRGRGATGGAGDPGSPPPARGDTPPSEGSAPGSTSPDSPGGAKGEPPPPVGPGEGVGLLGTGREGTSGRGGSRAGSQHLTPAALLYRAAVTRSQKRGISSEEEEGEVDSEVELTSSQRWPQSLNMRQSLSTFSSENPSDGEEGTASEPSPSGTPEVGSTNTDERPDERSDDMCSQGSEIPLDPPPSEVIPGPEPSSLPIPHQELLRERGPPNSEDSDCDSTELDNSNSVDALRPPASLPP
In short: as §1

EPHB3 = target: T15, EPHB3 (Homo sapiens, UniProt P54753)
T15 construct: purchased Eurofins DiscoverX KINOMEscan
In short: as §1

FER = target: T16, FER (Homo sapiens, UniProt P16591)
T16 construct: purchased Eurofins DiscoverX KINOMEscan
In short: as §1

FYN = target: T17, FYN (Homo sapiens, UniProt P06241)
T17 construct: purchased Eurofins DiscoverX KINOMEscan
In short: as §1

IKK-β = target: T18, IKK-β (Homo sapiens, UniProt O14920)
T18 construct: purchased Eurofins DiscoverX KINOMEscan
In short: as §2

JNK3 = target: T19, JNK3 (Homo sapiens, UniProt P53779)
T19 construct: purchased Eurofins DiscoverX KINOMEscan
In short: as §1

KIT (V559D) = target: T20, KIT (V559D) (Homo sapiens, UniProt P10721, V559D)
T20 construct: purchased Eurofins DiscoverX KINOMEscan
T20 sequence (P10721 26-976 V559D): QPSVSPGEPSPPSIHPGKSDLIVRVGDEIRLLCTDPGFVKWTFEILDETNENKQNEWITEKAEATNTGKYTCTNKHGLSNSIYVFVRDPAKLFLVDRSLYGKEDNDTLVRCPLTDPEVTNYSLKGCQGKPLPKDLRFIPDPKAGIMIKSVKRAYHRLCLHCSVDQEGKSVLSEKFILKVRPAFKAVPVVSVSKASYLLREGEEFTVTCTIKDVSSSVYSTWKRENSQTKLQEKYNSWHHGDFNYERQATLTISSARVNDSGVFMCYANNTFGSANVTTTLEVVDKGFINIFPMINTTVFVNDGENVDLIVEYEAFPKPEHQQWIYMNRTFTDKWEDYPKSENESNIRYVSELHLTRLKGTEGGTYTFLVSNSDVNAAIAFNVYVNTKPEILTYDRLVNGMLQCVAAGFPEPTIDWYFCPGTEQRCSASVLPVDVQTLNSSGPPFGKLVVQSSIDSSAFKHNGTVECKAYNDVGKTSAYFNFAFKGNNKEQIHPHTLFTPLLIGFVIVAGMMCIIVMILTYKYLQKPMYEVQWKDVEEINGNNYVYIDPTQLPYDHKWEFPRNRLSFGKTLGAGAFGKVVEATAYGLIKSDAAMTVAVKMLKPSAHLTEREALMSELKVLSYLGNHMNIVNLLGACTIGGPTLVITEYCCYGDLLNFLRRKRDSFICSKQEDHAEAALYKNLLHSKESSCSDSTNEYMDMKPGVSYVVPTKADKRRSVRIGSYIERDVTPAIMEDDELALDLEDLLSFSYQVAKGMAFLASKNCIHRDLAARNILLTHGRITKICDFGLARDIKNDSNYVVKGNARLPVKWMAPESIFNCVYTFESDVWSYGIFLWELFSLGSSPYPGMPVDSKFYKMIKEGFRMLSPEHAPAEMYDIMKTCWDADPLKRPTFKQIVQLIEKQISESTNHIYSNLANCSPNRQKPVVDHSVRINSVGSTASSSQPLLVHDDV
In short: as §1

LIMK1 = target: T21, LIMK1 (Homo sapiens, UniProt P53667)
T21 construct: purchased Eurofins DiscoverX KINOMEscan
In short: as §1

LRRK2 = target: T22, LRRK2 (Homo sapiens, UniProt Q5S007)
T22 construct: purchased Eurofins DiscoverX KINOMEscan
In short: as §2

MAP4K5 = target: T23, MAP4K5 (Homo sapiens, UniProt Q9Y4K4)
T23 construct: purchased Eurofins DiscoverX KINOMEscan
In short: as §1

MARK1 = target: T24, MARK1 (Homo sapiens, UniProt Q9P0L2)
T24 construct: purchased Eurofins DiscoverX KINOMEscan
In short: as §1

MET (M1250T) = target: T25, MET (M1250T) (Homo sapiens, UniProt P08581, M1250T)
T25 construct: purchased Eurofins DiscoverX KINOMEscan
In short: as §1

MYO3A = target: T26, MYO3A (Homo sapiens, UniProt Q8NEV4)
T26 construct: purchased Eurofins DiscoverX KINOMEscan
In short: as §1

NEK1 = target: T27, NEK1 (Homo sapiens, UniProt Q96PY6)
T27 construct: purchased Eurofins DiscoverX KINOMEscan
In short: as §1

PAK2 = target: T28, PAK2 (Homo sapiens, UniProt Q13177)
T28 construct: purchased Eurofins DiscoverX KINOMEscan
In short: as §2

PCTK1 = target: T29, PCTK1 (Homo sapiens, UniProt Q00536)
T29 construct: purchased Eurofins DiscoverX KINOMEscan
In short: as §1

PIK3CA (I800L) = target: T30, PIK3CA (I800L) (Homo sapiens, UniProt P42336, I800L)
T30 construct: purchased Eurofins DiscoverX KINOMEscan
T30 sequence (P42336 whole entry I800L): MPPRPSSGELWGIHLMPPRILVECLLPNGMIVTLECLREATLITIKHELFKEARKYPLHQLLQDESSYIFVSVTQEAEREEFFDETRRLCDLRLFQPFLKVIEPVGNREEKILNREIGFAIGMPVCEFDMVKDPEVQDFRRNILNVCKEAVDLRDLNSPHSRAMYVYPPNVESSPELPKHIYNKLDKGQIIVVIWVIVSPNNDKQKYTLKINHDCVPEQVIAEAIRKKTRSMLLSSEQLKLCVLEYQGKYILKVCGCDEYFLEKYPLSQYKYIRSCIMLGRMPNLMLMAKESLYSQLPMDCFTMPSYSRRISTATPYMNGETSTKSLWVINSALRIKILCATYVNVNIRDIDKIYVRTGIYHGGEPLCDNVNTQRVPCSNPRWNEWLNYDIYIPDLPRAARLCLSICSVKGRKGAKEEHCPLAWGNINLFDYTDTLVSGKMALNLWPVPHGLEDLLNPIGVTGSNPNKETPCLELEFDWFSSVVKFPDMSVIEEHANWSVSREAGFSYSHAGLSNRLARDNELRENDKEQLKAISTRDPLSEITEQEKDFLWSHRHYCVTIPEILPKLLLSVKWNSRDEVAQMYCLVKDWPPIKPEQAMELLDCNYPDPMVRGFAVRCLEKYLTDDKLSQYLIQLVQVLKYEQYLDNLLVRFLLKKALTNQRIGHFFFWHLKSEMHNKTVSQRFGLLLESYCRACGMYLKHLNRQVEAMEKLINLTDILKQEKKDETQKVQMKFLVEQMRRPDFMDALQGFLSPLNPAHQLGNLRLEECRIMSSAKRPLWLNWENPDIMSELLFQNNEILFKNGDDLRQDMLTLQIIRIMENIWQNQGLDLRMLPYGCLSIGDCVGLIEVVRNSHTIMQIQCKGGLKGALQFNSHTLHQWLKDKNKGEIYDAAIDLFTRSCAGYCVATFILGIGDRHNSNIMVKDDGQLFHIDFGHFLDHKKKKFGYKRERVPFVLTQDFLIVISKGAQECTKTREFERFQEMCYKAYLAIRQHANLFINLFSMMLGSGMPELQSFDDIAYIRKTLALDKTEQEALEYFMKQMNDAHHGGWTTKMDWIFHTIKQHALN
In short: as §1

PIK4CB = target: T31, PIK4CB (Homo sapiens, UniProt Q9UBF8)
T31 construct: purchased Eurofins DiscoverX KINOMEscan
In short: as §2

RIOK2 = target: T32, RIOK2 (Homo sapiens, UniProt Q9BVS4)
T32 construct: purchased Eurofins DiscoverX KINOMEscan
In short: as §1

[1] = target: T33, RSK2 (Kin. Dom.1-N-term.) (Homo sapiens, UniProt P51812)
T33 construct: RSK2 (Kin. Dom.1-N-term.); purchased Eurofins DiscoverX KINOMEscan
In short: as §1

[2] = target: T34, RSK4 (Kin. Dom.1-N-term.) (Homo sapiens, UniProt Q9UK32)
T34 construct: RSK4 (Kin. Dom.1-N-term.); purchased Eurofins DiscoverX KINOMEscan
In short: as §2

SIK2 = target: T35, SIK2 (Homo sapiens, UniProt Q9H0K1)
T35 construct: purchased Eurofins DiscoverX KINOMEscan
In short: as §1

STK39 = target: T36, STK39 (Homo sapiens, UniProt Q9UEW8)
T36 construct: purchased Eurofins DiscoverX KINOMEscan
In short: as §1

TLK2 = target: T37, TLK2 (Homo sapiens, UniProt Q86UE8)
T37 construct: purchased Eurofins DiscoverX KINOMEscan
In short: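 1 h RT binding → immobilized-ligand capture of free kinase → qPCR quantitation. Kd: 12 half-log points, max 33 μM.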

TSSK1B = target: T38, TSSK1B (Homo sapiens, UniProt Q9BXA7)
T38 construct: purchased Eurofins DiscoverX KINOMEscan
In short: as §1

T1 sequence (Q2M2I8 whole entry): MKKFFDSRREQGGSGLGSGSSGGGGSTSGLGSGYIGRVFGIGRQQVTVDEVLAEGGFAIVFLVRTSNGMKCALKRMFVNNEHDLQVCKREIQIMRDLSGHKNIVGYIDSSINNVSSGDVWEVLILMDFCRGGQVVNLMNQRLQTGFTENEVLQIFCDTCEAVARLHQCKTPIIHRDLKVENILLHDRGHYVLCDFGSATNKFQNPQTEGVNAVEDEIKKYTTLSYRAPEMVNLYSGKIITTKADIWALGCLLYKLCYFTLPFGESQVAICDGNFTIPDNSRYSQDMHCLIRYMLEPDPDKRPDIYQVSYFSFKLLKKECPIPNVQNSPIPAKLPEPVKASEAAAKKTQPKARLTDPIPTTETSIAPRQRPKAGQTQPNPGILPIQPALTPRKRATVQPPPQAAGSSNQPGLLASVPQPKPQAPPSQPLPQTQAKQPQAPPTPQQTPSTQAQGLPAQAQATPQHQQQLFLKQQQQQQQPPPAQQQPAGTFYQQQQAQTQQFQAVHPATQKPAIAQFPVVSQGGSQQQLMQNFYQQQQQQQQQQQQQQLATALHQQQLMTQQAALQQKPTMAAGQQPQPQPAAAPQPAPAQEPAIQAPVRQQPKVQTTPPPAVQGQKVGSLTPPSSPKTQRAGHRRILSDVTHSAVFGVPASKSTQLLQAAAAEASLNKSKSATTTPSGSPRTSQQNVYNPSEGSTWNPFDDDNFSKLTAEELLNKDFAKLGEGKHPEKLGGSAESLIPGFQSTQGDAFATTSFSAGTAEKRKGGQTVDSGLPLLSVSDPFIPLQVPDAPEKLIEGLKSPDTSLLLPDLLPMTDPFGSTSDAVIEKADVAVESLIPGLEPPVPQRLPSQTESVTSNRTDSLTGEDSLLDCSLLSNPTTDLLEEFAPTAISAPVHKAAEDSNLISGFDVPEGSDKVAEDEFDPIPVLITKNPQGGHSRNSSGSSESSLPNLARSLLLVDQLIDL

O=C1Nc2c(cc([N+](=O)[O-])c3c2CCCC3)C1=NO [Compound 5d, 3-(Hydroxyimino)-5-nitro-1,3,6,7,8,9-hexahydro-2H-benzo[g]indol-2-one]
inhibition at 10 µM (AAK1): 91.8% | inhibition at 10 µM (ABL1 (F317I)-P; first of two lines printed ABL1 (F317I)-P): 7% | inhibition at 10 µM (ABL1 (F317I)-P; second of two lines printed ABL1 (F317I)-P): 0% | inhibition at 10 µM (ABL1 (H396P)-P): 41% | inhibition at 10 µM (ABL1 (T315I)-non-P): 1% | inhibition at 10 µM (ABL1-P): 46% | inhibition at 10 µM (AURKC): 39% | inhibition at 10 µM (BIKE): 75% | inhibition at 10 µM (CAMK1B): 12% | inhibition at 10 µM (CAMK2D): 51% | inhibition at 10 µM (CDK4-cyclinD1): 9% | inhibition at 10 µM (CDK5): 1% | inhibition at 10 µM (CSNK1G3): 83% | inhibition at 10 µM (DCAMKL3): 10% | inhibition at 10 µM (DLK): 23% | inhibition at 10 µM (EPHB3): 0% | inhibition at 10 µM (FER): 39% | inhibition at 10 µM (FYN): 0% | inhibition at 10 µM (IKK-β): 50% | inhibition at 10 µM (JNK3): 52% | inhibition at 10 µM (KIT (V559D)): 0% | inhibition at 10 µM (LIMK1): 0% | inhibition at 10 µM (LRRK2): 96% | inhibition at 10 µM (MAP4K5): 12% | inhibition at 10 µM (MARK1): 24% | inhibition at 10 µM (MET (M1250T)): 51% | inhibition at 10 µM (MYO3A): 51% | inhibition at 10 µM (NEK1): 31% | inhibition at 10 µM (PAK2): 41% | inhibition at 10 µM (PCTK1): 5% | inhibition at 10 µM (PIK3CA (I800L)): 5% | inhibition at 10 µM (PIK4CB): 95.9% | inhibition at 10 µM (RIOK2): 80% | inhibition at 10 µM [1]: 81% | inhibition at 10 µM [2]: 77% | inhibition at 10 µM (SIK2): 7% | inhibition at 10 µM (STK39): 53% | inhibition at 10 µM (TLK2): 0% | inhibition at 10 µM (TSSK1B): 0%
